# Tests used:
# [1] = test system: Ankylosing spondylitis in HLA B27 Tg rat; test: HLA-B27/Huβ2m transgenic rat model of ankylosing spondylitis
# Text: Etanercept and tofactinib (Balagué et al. Profiling of dihydroorotate dehydrogenase, p38 and JAK inhibitors in the rat adjuvant-induced arthritis model: a translational study. Br J Pharmacol. 2012 June; 166(4):1320-32) were included in this rat study as comparator molecules.
# [2] = plasma exposure in HLA-B27/Huβ2m rats; details: 10 mg/kg daily oral (comparator)
# Text: In each disease model, steady-state pharmacokinetics were characterized.
AUCLST [2],Compound,Paw Swelling Inhibition (%) ([1]; 10 mg/kg daily oral gavage (comparator)),Paw Swelling Inhibition (%) ([1]; 10 mg/kg twice weekly subcutaneous injection (comparator))
6540 ng·h/mL,"C[C@@H]1CCN(C(=O)CC#N)C[C@@H]1N(C)c1ncnc2[nH]ccc12 [Tofacitinib, tofacitinib, reference compound]",47%,
,Etanercept,,42%

# Reference: patent US20220251105A1, “METHODS OF TREATING A MK2-MEDIATED DISORDER” (Celgene CAR LLC, priority 2019, published 2022)
